Measurements from patent US20230181905A1, “Systems, Devices, and Methods for Enhancing the Neuroprotective Effects of Non-Invasive Gamma Stimulation with Pharmacological Agents” (Massachusetts Institute of Technology, priority 2021, published 2023).

Tests used:
Format in all cases: in vivo, mouse
[1] = tested on: vGAT; experiment: vGAT synaptic puncta immunohistochemistry; details: 5×FAD mice, visual cortex
Description: Loss of synapses and neurons are closely associated with higher neuroinflammatory response and cognitive decline in AD. Therefore, synaptic markers in the visual cortex of Plx3397 and/or GENUS treated mice were evaluated. […] Thus, whether these treatments had any effect on neuronal density by immunohistochemical analysis of neuronal marker NeuN was examined (Synaptic Systems, #266 004) positive cells (FIG. 4A).
vGAT and vGLUT1 puncta: LSM 710, with a 40× objective, was used to acquire the images. The entire […] thickness of the slices was acquired in Z stacks—80 per image (step of 0.5 μm). The spot-count inbuilt function in Imarisx64 9.3 was used to count cells automatically.
vGAT and vGLUT1 puncta: LSM 710, with a 40× objective, was used to acquire the images. The entire […] thickness of the slices was acquired in Z stacks—80 per image (step of 0.5 μm). The spot-count inbuilt function in Imarisx64 9.3 (cohortl) and 9.7 (cohort 2) was used to count cells automatically.

[2] = tested on: D54D2 positive amyloid; experiment: D54D2 amyloid immunohistochemistry in 5×FAD mice
Excerpt: It was next sought to understand whether Plx3397 administration-dependent electrophysiological alterations were attributed to changes in amyloid plaque levels. […] In the cuprizone model of demyelination, Plx33977 administration preserved myelin. It was thus considered whether electrophysiological alterations are associated with myelin levels in Plx3397 treated 5×FAD mice.

[3] = tested on: 5×FAD mice; experiment: Novel object recognition test in 5×FAD mice; details: chance level 50%, control 51.33±4.15
Description: Given the neuroprotective effect of Plx3397+GENUS treatment, whether this treatment also impacted learning and memory was evaluated. Mice were tested in an open field (OF) and assessed for changes in anxiety and activity levels, followed by a novel object recognition (NOR) test of memory. 10-month-1d 5×FAD mice were treated with Plx3397. Following 20 days administration of Plx3397 chow, untreated- and Plx3397 treated 5×FAD mice (which continued PLX administration) were subjected to 30 days of daily GENUS. Mice were tested in OF and NOR during the last week of these treatments. […] Next, CK-p25 mice were treated for 42 days and assessed behavioral performance.
For OF, mice were introduced into an open field box (dimensions: length=460 mm, width=460 mm and height=400 mm; TSE-Systems) and were tracked using Noldus (Ethovision) for 12 min, with time spent in the center and peripheral area of the arena measured. […] Mouse behavior was monitored for 7 min. Time spent exploring both the familiar and novel objects was recorded using Noldus and computed offline. Percentage of novelty preference index was calculated as follows: time exploring novel object (Nt) divided by total time exploring novel and familiar (Ft) objects and presented in %−{[Nt/Nt+Ft]*100}.

[4] = tested on: amyloid plaques (D54D2); experiment: D54D2 amyloid plaque staining in APOE4-KI 5×FAD hippocampus; details: APOE4-KI 5×FAD mice, PLX3397 diet combined with 21 days A+V GENUS
Description: Given that APOE4+ individuals accumulate A #earlier than non-carriers, and that APOE facilitates the response of microglia to amyloid, GENUS outcomes in an APOE4-KI amyloid model were examined. To this end, 21d A+V (audio and visual) GENUS in APOE-KI 5×FAD model was performed and amyloid and microglial outcomes were examined.
Next, 7-8 month old male APOE4-KI 5×FAD animals were treated with 3 weeks of PLX3397 diet (or control), followed by 21 days of A+V GENUS, during which animals remained on their diets (FIG. 37).

For FC(F)(F)c1ccc(CNc2ccc(Cc3c[nH]c4ncc(Cl)cc34)cn2)cn1 [Plx3397, Pexidartinib], the vGAT synaptic puncta ([1]; IHC) was 109.9±2.235 % of no treatment control, the “vGAT positive synaptic puncta” value ([1]; vs untreated) was “significant increase” and the amyloid ([2]; hippocampus, chronic Plx3397 vs control) was “did not affect”. The “amyloid levels (D54D2 positive amyloid signal)” value ([2]; visual cortex, chronic Plx3397, not affected vs control) was 9894±1181 au, the “preference for the novel object in the NOR test (novelty index)” value [3] was 57.55±7.00% and the amyloid plaque number ([4]; hippocampus CA1) was “significant reduction”. For the same molecule, the amyloid total area [4] was “significant reduction” and the “amyloid staining mean intensity” value ([4]; vs standard diet) was “significant reduction”.
